Laboratory results reported in ChEMBL document CHEMBL4765331, “Amides of pyrrole- and thiophene-fused anthraquinone derivatives: A role of the heterocyclic core in antitumor properties” (Eur J Med Chem, 2020).

Tests used:
CAPAN-1 = test: Antiproliferative activity against human CAPAN-1 cells assessed as inhibition of cell proliferation measured after 72 hrs by MTT assay; format: functional, cell-based; conditions: CAPAN-1, 72 h
HCT-116 = test: Antiproliferative activity against human HCT-116 cells assessed as inhibition of cell proliferation measured after 72 hrs by MTT assay; format: functional, cell-based; conditions: HCT-116, 72 h
K562 = test: Antiproliferative activity against human K562 cells assessed as inhibition of cell proliferation measured after 72 hrs by MTT assay; format: functional, cell-based; conditions: K562, 72 h
TERT-RPE1 = test: Cytotoxicity against human TERT-RPE1 cells assessed as inhibition of cell proliferation measured after 72 hrs by MTT assay; format: cell-based; conditions: RPE-1, 72 h
NCI-H460 = test: Antiproliferative activity against human NCI-H460 cells assessed as inhibition of cell proliferation measured after 72 hrs by MTT assay; format: functional, cell-based; conditions: NCI-H460, 72 h
HL-60 = test: Antiproliferative activity against human HL-60 cells assessed as inhibition of cell proliferation measured after 72 hrs by MTT assay; format: functional, cell-based; conditions: HL-60, 72 h

SMILES | IC50 (CAPAN-1) [nM] | IC50 (HCT-116) [nM] | IC50 (K562) [nM] | IC50 (TERT-RPE1) [nM] | IC50 (NCI-H460) [nM] | IC50 (HL-60) [nM]
NC1CCN(C(=O)c2csc3c(O)c4c(c(O)c23)C(=O)c2ccccc2C4=O)CC1 | 300 | 1900 | 2000 | 15700 | 1700 | 900
Cc1[nH]c2c(O)c3c(c(O)c2c1C(=O)N[C@@H]1CCNC1)C(=O)c1ccccc1C3=O | 1000 | 2300 | 800 | 14700 | 4400 | 1000
Cc1[nH]c2c(O)c3c(c(O)c2c1C(=O)N1CCC(N)CC1)C(=O)c1ccccc1C3=O | 1700 | 1400 | 2300 | 14200 | 2900 | 800
Cc1[nH]c2c(O)c3c(c(O)c2c1C(=O)N1CCCC(N)C1)C(=O)c1ccccc1C3=O (stereo not given) | 1100 | 2000 | 400 | 16500 | 2600 | 200
O=C1c2ccccc2C(=O)c2c1c(O)c1scc(C(=O)N[C@@H]3CCNC3)c1c2O | 2200 | 800 | 500 | 15500 | 2000 | 4600
O=C1c2ccccc2C(=O)c2c1c(O)c1scc(C(=O)N[C@H]3CCNC3)c1c2O | 2800 | 900 | 700 | 14900 | 1400 | 3900
CC(=O)Cn1c(C)c(C(=O)N2CC[C@H](N)C2)c2c(O)c3c(c(O)c21)C(=O)c1ccccc1C3=O | 13400 | 16900 | 2200 | > 20000 | 16400 | 3400
Cc1c(C(=O)N2CC[C@H](N)C2)c2c(O)c3c(c(O)c2n1CC(=O)O)C(=O)c1ccccc1C3=O | 14300 | 17100 | 13400 | > 20000 | 20000 | 13300
Cc1[nH]c2c(O)c3c(c(O)c2c1C(=O)N[C@H]1CCNC1)C(=O)c1ccccc1C3=O | 1000 | 1800 | 700 | 17100 | 5300 | 1000
O=C1c2ccccc2C(=O)c2c1c(O)c1scc(C(=O)NC3CCCNC3)c1c2O (racemic) | 1200 | 3200 | 6800 | 6800 | 2700 | 2600
Cc1[nH]c2c(O)c3c(c(O)c2c1C(=O)NC1CCNCC1)C(=O)c1ccccc1C3=O | 300 | 1500 | 400 | 11800 | 1100 | 200
N[C@@H]1CCN(C(=O)c2csc3c(O)c4c(c(O)c23)C(=O)c2ccccc2C4=O)C1 | 2000 | 2000 | 1200 | 12600 | 800 | 4100
Cc1[nH]c2c(O)c3c(c(O)c2c1C(=O)NC1CCCNC1)C(=O)c1ccccc1C3=O (stereo not given) | 400 | 1000 | 3200 | 12500 | 1000 | 1800
O=C1c2ccccc2C(=O)c2c1c(O)c1scc(C(=O)NC3CCNCC3)c1c2O | 1200 | 1700 | 1500 | 5800 | 1200 | 1600
NC1CCCN(C(=O)c2csc3c(O)c4c(c(O)c23)C(=O)c2ccccc2C4=O)C1 (racemic) | 1100 | 800 | 1300 | 7900 | 4300 | 3000
